# Measurements from US10105357B2, “Indication of antibiotic drugs for preparation of cancer inhibition pharmaceutical composition” (LAUNX BIOMEDICAL CO., LTD., priority 2014, dated 2018).
# Read-outs that look alike come from different tables or passages of the source.
# Columns and labels:
# [1] = test system: HI650 (Lung Adenocarcinoma); assay: Cell viability analysis, lung cancer HI650; format: cell-based, human; conditions: Homo sapiens, NCI-H1650, 72 h
# [2] = test system: A549 (Lung Adenocarcinoma); assay: Cell viability analysis, lung cancer A549; format: cell-based, human; conditions: Homo sapiens, A549, 72 h
# [3] = test system: AGS (Gastric Adenocarcinoma); assay: Cell viability analysis, gastric cancer AGS; format: cell-based, human; conditions: Homo sapiens, 72 h
# [4] = test system: MKN-45 (Gastric Adenocarcinoma); assay: Cell viability analysis, gastric cancer MKN-45; format: cell-based, human; conditions: Homo sapiens, MKN-45, 72 h
# [5] = test system: HepG2 (Hepatocellular Carcinoma); assay: Cell viability analysis, hepatic cancer HepG2; format: cell-based, human; conditions: Homo sapiens, HepG2, 72 h
# [6] = test system: Hep3B (hepatocellular carcinoma); assay: Cell viability analysis, hepatic cancer Hep3B; format: cell-based, human; conditions: Homo sapiens, Hep3B, 72 h, read-out: The results of antibiotic drug inhibiting cancer cell lines (cell viability analysis), Hep3B
# [7] = test system: LoVo (Colorectal Adenocarcinoma); assay: Cell viability analysis, colon cancer LoVo; format: cell-based, human; conditions: Homo sapiens, LoVo, 72 h
# [8] = test system: A375 (Amelanotic Melanoma); assay: Cell viability analysis, skin cancer A375; format: cell-based, human; conditions: Homo sapiens, A-375, 72 h
# [9] = test system: BCC (basal cell carcinoma); assay: Cell viability analysis, skin cancer BCC; format: cell-based, human; conditions: Homo sapiens, 72 h, read-out: The results of antibiotic drug inhibiting cancer cell lines (cell viability analysis), BCC
# [10] = test system: HeLa (Cervix Adenocarcinoma); assay: Cell viability analysis, cervical cancer HeLa; format: cell-based, human; conditions: Homo sapiens, HeLa, 72 h
# [11] = test system: C-33A (Cervical carcinoma); assay: Cell viability analysis, cervical cancer C-33A; format: cell-based, human; conditions: Homo sapiens, C-33-A, 72 h, read-out: The results of antibiotic drug inhibiting cancer cell lines (cell viability analysis), C-33A
# [12] = test system: PC3 (p53−) (Prostate Adenocarcinoma); assay: Cell viability analysis, prostate cancer PC3; format: cell-based, human; conditions: Homo sapiens, 72 h
# [13] = test system: TSGH-8301 (Urinary Bladder Carcinoma); assay: Cell viability analysis, bladder cancer TSGH-8301; format: cell-based, human; conditions: Homo sapiens, 72 h
# [14] = test system: T24; assay: Cell viability analysis, bladder cancer T24; format: cell-based, human; conditions: Homo sapiens, T-24, 72 h, read-out: The results of antibiotic drug inhibiting cancer cell lines (cell viability analysis), T24
# [15] = test system: MCF7 (Mammary Gland, Adenocarcinoma); assay: Cell viability analysis, breast cancer MCF7; format: cell-based, human; conditions: Homo sapiens, MCF7, 72 h
# [16] = test system: MDA-MB-231 (Mammary Gland, Adenocarcinoma); assay: Cell viability analysis, breast cancer MDA-MB-231; format: cell-based, human; conditions: Homo sapiens, MDA-MB-231, 72 h, read-out: The results of antibiotic drug inhibiting cancer cell lines (cell viability analysis), MDA-MB231
# [17] = test system: BxPC-3; assay: Cell viability analysis, pancreatic cancer BxPC-3; format: cell-based, human; conditions: Homo sapiens, BXPC-3, 72 h, read-out: The results of antibiotic drug inhibiting cancer cell lines (cell viability analysis), BxPC-3
# [18] = test system: AsPC-1; assay: Cell viability analysis, pancreatic cancer AsPC-1; format: cell-based, human; conditions: Homo sapiens, ASPC1, 72 h, read-out: The results of antibiotic drug inhibiting cancer cell lines (cell viability analysis), AsPC-1
# [19] = test system: NIH: OVCAR-3; assay: Cell viability analysis, ovarian cancer NIH: OVCAR-3; format: cell-based, human; conditions: Homo sapiens, OVCAR-3, 72 h, read-out: The results of antibiotic drug inhibiting cancer cell lines (cell viability analysis), NIH-OVCAR-3
# [20] = test system: TOV-21G; assay: Cell viability analysis, ovarian cancer TOV-21G; format: cell-based, human; conditions: Homo sapiens, TOV21G, 72 h, read-out: The results of antibiotic drug inhibiting cancer cell lines (cell viability analysis), TOV-21G
# [21] = test system: SAS (Tongue squamous cell carcinoma); assay: Cell viability analysis, tongue cancer SAS; format: cell-based, human; conditions: Homo sapiens, 72 h, read-out: The results of antibiotic drug inhibiting cancer cell lines (cell viability analysis), SAS
# [22] = test system: U-2OS; assay: Cell viability analysis, osteosarcoma U-2OS; format: cell-based, human; conditions: Homo sapiens, U2OS, 72 h, read-out: The results of antibiotic drug inhibiting cancer cell lines (cell viability analysis), U2OS
# [23] = test system: 786-O (Renal adenocarcinoma); assay: Cell viability analysis, renal cancer 786-O; format: cell-based, human; conditions: Homo sapiens, 786-0, 72 h, read-out: The results of antibiotic drug inhibiting cancer cell lines (cell viability analysis), 786-O
# [24] = test system: HCT116 (p53+) (Colorectal Carcinoma)
# [25] = read-out: The results of antibiotic drug inhibiting cancer cell lines (cell viability analysis), H1650, H1650, repeated experiment
# [26] = read-out: cell viability (survival rate), H1650, drug 10 μM, 72 hours, WST-1, OD450 nm
# [27] = read-out: The results of antibiotic drug inhibiting cancer cell lines (cell viability analysis), A549, A549, repeated experiment
# [28] = read-out: cell viability (survival rate), A549, drug 10 μM, 72 hours, WST-1, OD450 nm
# [29] = read-out: The results of antibiotic drug inhibiting cancer cell lines (cell viability analysis), AGS, repeated experiment
# [30] = read-out: cell viability (survival rate), AGS, drug 10 μM, 72 hours, WST-1, OD450 nm
# [31] = read-out: The results of antibiotic drug inhibiting cancer cell lines (cell viability analysis), MKN-45, MKN-45, repeated experiment
# [32] = read-out: cell viability (survival rate), MKN-45, drug 10 μM, 72 hours, WST-1, OD450 nm
# [33] = read-out: The results of antibiotic drug inhibiting cancer cell lines (cell viability analysis), HepG2, HepG2, repeated experiment
# [34] = read-out: cell viability (survival rate), HepG2, drug 10 μM, 72 hours, WST-1, OD450 nm
# [35] = read-out: The results of antibiotic drug inhibiting cancer cell lines (cell viability analysis), LoVo, repeated experiment
# [36] = read-out: cell viability (survival rate), LoVo, drug 10 μM, 72 hours, WST-1, OD450 nm
# [37] = read-out: The results of antibiotic drug inhibiting cancer cell lines (cell viability analysis), A375, A375, repeated experiment
# [38] = read-out: cell viability (survival rate), A375, drug 10 μM, 72 hours, WST-1, OD450 nm
# [39] = read-out: The results of antibiotic drug inhibiting cancer cell lines (cell viability analysis), HeLa, repeated experiment
# [40] = read-out: cell viability (survival rate), HeLa, drug 10 μM, 72 hours, WST-1, OD450 nm
# [41] = read-out: The results of antibiotic drug inhibiting cancer cell lines (cell viability analysis), PC-3, PC-3, repeated experiment
# [42] = read-out: cell viability (survival rate), PC3, drug 10 μM, 72 hours, WST-1, OD450 nm
# [43] = read-out: The results of antibiotic drug inhibiting cancer cell lines (cell viability analysis), TSGH-8301, TSGH-8301, repeated experiment
# [44] = read-out: cell viability (survival rate), TSGH, drug 10 μM, 72 hours, WST-1, OD450 nm
# [45] = read-out: The results of antibiotic drug inhibiting cancer cell lines (cell viability analysis), MCF-7, MCF-7, repeated experiment
# [46] = read-out: cell viability (survival rate), MCF7, drug 10 μM, 72 hours, WST-1, OD450 nm
SMILES,"viability at 10 µM [1, 25] [%]","viability at 10 µM [1, 26] [%]","viability at 10 µM [2, 27] [%]","viability at 10 µM [2, 28] [%]","viability at 10 µM [3, 29] [%]","viability at 10 µM [3, 30] [%]","viability at 10 µM [4, 31] [%]","viability at 10 µM [4, 32] [%]","viability at 10 µM [5, 33] [%]","viability at 10 µM [5, 34] [%]",viability at 10 µM [6] [%],"viability at 10 µM [7, 35] [%]","viability at 10 µM [7, 36] [%]","viability at 10 µM [8, 37] [%]","viability at 10 µM [8, 38] [%]",viability at 10 µM [9] [%],"viability at 10 µM [10, 39] [%]","viability at 10 µM [10, 40] [%]",viability at 10 µM [11] [%],"viability at 10 µM [12, 41] [%]",other results
"CC(C)(C)C(=O)OCOP(=O)(COCCn1cnc2c(N)ncnc21)OCOC(=O)C(C)(C)C [Adefovir Dipivoxil (Preveon, Hepsera), Adefovir Dipivoxil]",54,55.3,76.7,47.3,78,35.1,86.6,46.1,80.1,95.5,71.5,58.1,62,37.7,81.7,38.9,77.4,96.6,68,74.8,"viability at 10 µM [12, 42]: 91.3%; viability at 10 µM [13, 43]: 70%; viability at 10 µM [13, 44]: 47%; viability at 10 µM [14]: 44.8%; viability at 10 µM [15, 45]: 75.5%; viability at 10 µM [15, 46]: 56.7%; viability at 10 µM [16]: 71.9%; viability at 10 µM [17]: 56.9%; viability at 10 µM [18]: 48.7%; viability at 10 µM [19]: 78.8%; viability at 10 µM [20]: 77.3%; viability at 10 µM [21]: 40%; viability at 10 µM [22]: 68.5%; viability at 10 µM [23]: 25.9%; viability [24]: 55.4%"
COc1cc(NC(C)CCCN)c2ncccc2c1 (stereo not shown) [Primaquine Diphosphate],66.8,56.4,47.4,31.4,37.1,43.9,63.1,64.3,81,81.4,115,81.2,72.6,38.7,44.6,35.9,61.2,55,96.8,65.7,"viability at 10 µM [12, 42]: 60.3%; viability at 10 µM [13, 43]: 51.5%; viability at 10 µM [13, 44]: 55.5%; viability at 10 µM [14]: 72.6%; viability at 10 µM [15, 45]: 50.7%; viability at 10 µM [15, 46]: 36.7%; viability at 10 µM [16]: 65.4%; viability at 10 µM [17]: 49.8%; viability at 10 µM [18]: 66.5%; viability at 10 µM [19]: 60.2%; viability at 10 µM [20]: 54.8%; viability at 10 µM [21]: 59.9%; viability at 10 µM [22]: 59.6%; viability at 10 µM [23]: 81.5%; viability [24]: 60.9%"
